According to US4118561A, “7-(Substituted)-7H-pyrrolo[3,2-f]quinazoline-1,3-diamines” (priority 1977, dated 1978):
Values after ≈ are worked out from the molar mass of the structure shown. Like-named read-outs stand apart in the source and are kept apart here.

Key:
[1] = tested on: S. paratyphi 11737; assay: In vitro antibacterial activity (MIC), S. paratyphi 11737; type: cell-based; conditions: Salmonella enterica, 18 h
[2] = tested on: S. aureus 53-180; assay: In vitro antibacterial activity (MIC), S. aureus 53-180; conditions: Staphylococcus aureus, 53180, 18 h
[3] = tested on: K. pneumoniae 10031; assay: In vitro antibacterial activity (MIC), K. pneumoniae 10031; conditions: Klebsiella pneumoniae, 10031, 18 h
[4] = tested on: N. catarrhalis 8193; assay: In vitro antibacterial activity (MIC), N. catarrhalis 8193; conditions: 18 h
[5] = tested on: E. coli 9637; assay: In vitro antibacterial activity (MIC), E. coli 9637; conditions: Escherichia coli, 9637, 18 h
[6] = tested on: P. vulgaris 6896; assay: In vitro antibacterial activity (MIC), P. vulgaris 6896; conditions: Proteus vulgaris, 6896, 18 h
[7] = tested on: S. aureus Smith; assay: In vitro antibacterial activity (MIC), S. aureus Smith; conditions: Staphylococcus aureus, 18 h
[8] = tested on: Plasmodium berghei KBG 173; assay: Antimalarial blood schizonticidal test in mice; type: in vivo, Plasmodium berghei (infected ICR/HA Swiss mice); parameters: ΔMST (increase in mean survival time): unit: days; conditions: for ED100 / minimal effective dose: Plasmodium berghei, sc, single dose; for ED100: read-out: Lowest Dose Curing All Mice; for minimal effective dose: read-out: Min. Curing Dose; for Cure/Treat at Min. Curing Dose: at the Min. Curing Dose
Source text: (§1) In addition, the invention provides compounds which have antimalarial activity in vivo as evidenced by a standard blood schizonticidal test in mice infected with Plasmodium berghei KBG 173.
(§2) Utilizing young ICR/HA Swiss mice and a standard inoculum of Plasmodium berghei KBG 173, it is possible to produce a uniform disease fatal to 100% of untreated animals within 6 to 8 days with a mean survival time of 6.2 days. Test animals weigh from 18 to 22 grams but weight variations in any given experimental or control group are confined to 2-3 grams. All animals in any given test are approximately of the same age. Animals on test are housed in metal-topped plastic cages, given a standard laboratory diet and water ad libitum.
(§3) Test animals receive an intraperitoneal injection of 0.5 ml. of 1:100 dilution of heparinized heart's blood with a minimum of 90% parasitized cells (4 × 10^7 cells), drawn from donor mice infected one week earlier with Plasmodium berghei. The donor strain is maintained by weekly passages in separate groups of mice inoculated with a 0.5 ml. of 1:500 dilution of heparinized heart's blood.
(§4) Test compounds are administered after dissolution or suspension in peanut oil. A single dose is given subcutaneously 72 hours after the mice are infected with Plasmodium berghei. At this time a 10-15 percent parasitemia has developed; the disease is well established but has not produced sufficient debility to alter the response of the host to toxic effects of the drug on test. Since treatment is withheld for three days to permit the infection to become well established and death occurs in untreated controls within 6-8 days, it is felt that this system presents a candidate compound with the maximum challenge. In order to check factors such as changes in the infectivity of Plasmodium berghei or in the susceptibility of the host or to detect technical errors, a group of infected animals treated with pyrimethamine at dose levels producing definite increases in survival time is included in a positive control in every experiment.
(§5) In each experiment test compounds are administered in graded dosages. […] However, if an active drug is toxic for the host, its toxicity may become a limiting factor; continued increases in dose levels also increase the toxic effects and may result in the diminution of survival times. Deaths prior to the sixth day, when untreated controls begin to die, are regarded as nonparasitic and become the basis for toxicity evaluations. […] In calculating mean survival time, toxic deaths and 60-day survivors are not included.
(§6) Compounds are considered active which produce a cure in at least one test animal or which produce significant increases in mean survival times of the treated animals as compared with the mean survival times of untreated controls, provided that no drug related deaths (toxicity) are noted at the active dose.

[9] = Antimalarial blood schizonticidal test in mice; type: in vivo, Plasmodium berghei (infected ICR/HA Swiss mice); parameters: ΔMST (increase in mean survival time): unit: days; conditions: mouse, in vivo, sc, single dose, read-out: Highest Non-Lethal Dose
Source text: as §1, §2, §3, §4, §5, §6

[10] = infected mice, highest dose with no deaths for any reason
[11] = 336 h, s.c., alive on day 14 considered cured, no 60-day data
[12] = s.c., alive on day 14 considered cured
[13] = alive on day 14 considered cured, no 60-day data
[14] = s.c., dose 1.25 mg. per kg., alive on day 14 considered cured, no 60-day data

Structure (SMILES)	MIC [1]	MIC [2]	MIC [3]	MIC [4]	MIC [5]	MIC [6]	MIC [7]	ED100 ([8]; 1440 h, s.c., 60-day survivors)	Cure/Treat at Min. Curing Dose ([8]; s.c., 60-day survivors)	MTD [9, 10]	minimal effective dose ([8]; 1440 h, s.c., 60-day survivors)	ΔMST (increase in mean survival time) ([8]; s.c., dose 5 mg. per kg.)	ED100 [8, 11]	minimal effective dose [8, 11]	Cure/Treat at Min. Curing Dose [8, 12]	MTD [9, 13]	other results
Cc1ccc2ccccc2c1Cn1ccc2c3c(N)nc(N)nc3ccc21 [Example 49]	> 250 µg/mL	125 µg/mL (≈ 354 µM)	15.6 µg/mL (≈ 44.1 µM)	0.122 µg/mL (≈ 0.345 µM)	> 250 µg/mL	> 250 µg/mL	125 µg/mL (≈ 354 µM)	20 mg/kg	5/5	80 mg/kg							minimal effective dose ([8]; this is the lowest dose tested): 20 mg/kg
Nc1nc(N)c2c(ccc3c2ccn3Cc2ccc(Cl)cc2)n1 [Example 8]	0.976 µg/mL (≈ 3.01 µM)	0.244 µg/mL (≈ 0.754 µM)	0.122 µg/mL (≈ 0.377 µM)	0.0038 µg/mL (≈ 0.0117 µM)	0.976 µg/mL (≈ 3.01 µM)	0.976 µg/mL (≈ 3.01 µM)	0.976 µg/mL (≈ 3.01 µM)	20 mg/kg	2/5	40 mg/kg	10 mg/kg	8.1					
Cc1cc(C)c(Cn2ccc3c4c(N)nc(N)nc4ccc32)c(C)c1 [Example 27]	> 250 µg/mL	250 µg/mL (≈ 754 µM)	31.3 µg/mL (≈ 94.4 µM)	0.244 µg/mL (≈ 0.736 µM)	> 250 µg/mL	> 250 µg/mL	250 µg/mL (≈ 754 µM)	40 mg/kg	3/5	80 mg/kg	5 mg/kg						ΔMST (increase in mean survival time) ([8]; s.c., dose 2.5 mg. per kg.): 7.3
Nc1nc(N)c2c(ccc3c2ccn3CCCc2ccccc2)n1 [Example 56]	250 µg/mL (≈ 788 µM)	250 µg/mL (≈ 788 µM)	250 µg/mL (≈ 788 µM)	250 µg/mL (≈ 788 µM)	250 µg/mL (≈ 788 µM)	250 µg/mL (≈ 788 µM)	250 µg/mL (≈ 788 µM)	320 mg/kg	3/5		160 mg/kg						ΔMST (increase in mean survival time) ([8]; s.c., dose 80 mg. per kg.): 10.7; MTD ([9]; this is the highest dose tested): 640 mg/kg
Cc1cccc(Cn2ccc3c4c(N)nc(N)nc4ccc32)c1 [Example 20]	1.95 µg/mL (≈ 6.43 µM)	0.488 µg/mL (≈ 1.61 µM)	1.95 µg/mL (≈ 6.43 µM)	0.031 µg/mL (≈ 0.102 µM)	0.488 µg/mL (≈ 1.61 µM)	1.95 µg/mL (≈ 6.43 µM)	0.976 µg/mL (≈ 3.22 µM)	20 mg/kg	4/5	320 mg/kg	5 mg/kg	6.9					
Nc1nc(N)c2c(ccc3c2ccn3Cc2c(Cl)cccc2Cl)n1 [Example 9]	> 250 µg/mL	250 µg/mL (≈ 698 µM)	15.6 µg/mL (≈ 43.5 µM)	0.488 µg/mL (≈ 1.36 µM)	> 250 µg/mL	> 250 µg/mL	250 µg/mL (≈ 698 µM)						40 mg/kg	5 mg/kg	1/5	160 mg/kg	
Nc1nc(N)c2c(ccc3c2ccn3Cc2cccc3cccnc23)n1 [Example 51]	1.95 µg/mL (≈ 5.73 µM)	0.122 µg/mL (≈ 0.358 µM)	0.122 µg/mL (≈ 0.358 µM)	0.0152 µg/mL (≈ 0.0447 µM)	0.244 µg/mL (≈ 0.717 µM)	7.81 µg/mL (≈ 22.9 µM)	0.244 µg/mL (≈ 0.717 µM)	20 mg/kg	1/5	40 mg/kg	5 mg/kg	6.4					
Nc1nc(N)c2c(ccc3c2ccn3Cc2ccccc2C(F)(F)F)n1 [Example 11]	3.9 µg/mL (≈ 10.9 µM)	0.244 µg/mL (≈ 0.683 µM)	0.122 µg/mL (≈ 0.341 µM)	< 0.0009 µg/mL	1.95 µg/mL (≈ 5.46 µM)	62.5 µg/mL (≈ 175 µM)	0.488 µg/mL (≈ 1.37 µM)	10 mg/kg	1/5	40 mg/kg	1.25 mg/kg						ΔMST (increase in mean survival time) ([8]; s.c., dose 0.63 mg. per kg.): 7.3
Cc1ccc(C)c(Cn2c(C)cc3c4c(N)nc(N)nc4ccc32)c1 [Example 103]	> 250 µg/mL	7.81 µg/mL (≈ 23.6 µM)	15.6 µg/mL (≈ 47.1 µM)	1.95 µg/mL (≈ 5.88 µM)	250 µg/mL (≈ 754 µM)	> 250 µg/mL	31.3 µg/mL (≈ 94.4 µM)						5 mg/kg	1.25 mg/kg	1/5	80 mg/kg	ΔMST (increase in mean survival time) [8, 14]: 6.8
CSc1ccc(Cn2ccc3c4c(N)nc(N)nc4ccc32)cc1 [Example 31]	3.9 µg/mL (≈ 11.6 µM)	0.488 µg/mL (≈ 1.45 µM)	0.122 µg/mL (≈ 0.364 µM)	0.0152 µg/mL (≈ 0.0453 µM)	0.488 µg/mL (≈ 1.45 µM)	31.3 µg/mL (≈ 93.3 µM)	0.976 µg/mL (≈ 2.91 µM)						20 mg/kg	2.5 mg/kg	4/5	40 mg/kg	ΔMST (increase in mean survival time) [8, 14]: 6.2
